Measurements taken from PMC10675077, “Antimicrobial Properties of New Polyamines Conjugated with Oxygen-Containing Aromatic Functional Groups” (Molecules, 2023).
Values after ≈ are worked out from the molar mass of the structure shown.

Key:
[1] = Potentiometric titrations in water (protonation constants); assay type: physicochemical; conditions: for log β (cumulative protonation constant): calculated as log β = ∑j log KHjL; for n, average number of positive charges at pH 7.4: calculated from protonation constants
Method: The potentiometric titrations were carried out at 298.1 ± 0.1 K using NaCl 0.15 M as a supporting electrolyte. The experimental procedure (burette, potentiometer, cell, stirrer, microcomputer, etc.) has been fully described elsewhere. The acquisition of the EMF data was performed with the computer program PASAT [50]. The reference electrode was a Ag/AgCl electrode in a saturated KCl solution. The glass electrode was calibrated as a hydrogen-ion concentration probe via the titration of previously standardised amounts of HCl with CO2-free NaOH solutions and the equivalent point determined using the Gran method, which provides the standard potential, E^θ′, and the ionic product of water (pKw = 13.73(1)).
The computer program […] was used to calculate the protonation constants. The pH range investigated was 2.5–11.0, and the concentration of the ligands ranged from 5 × 10^−4 to 5 × 10^−[…]. The different titration curves for each system (at least two) were treated either as a single set or as separated curves without significant variations in the values of the stability constants. Finally, the sets of data were merged and treated simultaneously to give the final stability constants.

BY4741/PDR5 = test: Checkerboard titration synergy, BY4741/PDR5; assay type: cell-based, Saccharomyces cerevisiae; conditions: synergistic when FICI ≤0.5
Method: (§1) The combined antimicrobial activity of the test compounds with the antibacterial or antifungal control agents was performed under the same conditions used for the MIC determination and following the procedures described by Carton Herrán, Reis de Sá et al. and Zharkova et al.. For each experiment, 16 samples (4 rows × 4 columns) in a total volume of 0.5 mL were prepared in tubes using an array of combinations between the MIC value and 0 μg/mL of the compound to be tested in each row, and between the MIC value and 0 μg/mL of the reference drug in each column. In this way, a variety of mixtures with different concentrations of them alone or in combination was obtained. Briefly, 0.5 mL of a microorganism culture was added to each one of the samples, and after incubation for 24 h with shaking at the appropriate temperature (37 °C or 30 °C), the tubs were visually inspected, and the OD600 was measured. From this information, the fractional inhibitory concentration index (FICI) was calculated according to the formula FIC index = ([A]/[CMI A]) + ([B]/[CMI B]), where [A] and [B] are respective concentrations of tested polyamine and reference drug in their combination effectively inhibiting the growth of bacteria or yeast, and [MIC A] and [MIC B] are the individual MICs of the tested polyamine and reference drug when they are used alone. An interaction is considered synergistic when the FICI value is ≤0.5 [41, 42].
(§2) To confirm the data obtained in the checkerboard assay, 30 μL of a ten-fold dilution of the tubes containing concentrations of half of the MIC of each one of the compounds alone (polyamine to be tested and reference drug) and one fourth of the MIC of each one in combination were also spread in LB or SC-ura plates (according to the microorganism considered in each case) and incubated at 37 °C or 30 °C. The visualisation of these plates was performed after 24 or 48 h, respectively. All these experiments were carried out in triplicate.

[2] = Cytotoxicity, flow cytometry viability assay with propidium iodide; assay type: cell-based, human; conditions: human, Jurkat cells (human lymphocytic leukaemia, ATCC TIB-152), 24 h treatment, average of three experiments, read-out: IC50, cytotoxicity on the human Jurkat cell line
Method: The cytotoxicity of the compounds was assessed via flow cytometry with a viability assay using propidium iodide (PI), a DNA-binding fluorescent probe not permeant to live cells, which is commonly used to detect dead cells in a population. The human lymphocytic leukaemia Jurkat cell line (ATCC TIB-152) was obtained from the American Type Cell Culture (Sigma-Aldrich) and grown in suspension in an RPMI 1640 medium (Thermo Fisher Scientific, Waltham, MA, USA) supplemented with L-glutamine, antibiotics, and 10% heat-inactivated foetal calf serum (FCS, Thermo Fisher Scientific, Waltham, MA, USA). For the viability assay, cells were seeded in plastic 96-well plates at […] in an RPMI 1640 medium supplemented with 5% FCS. The cells were treated for 24 h with a range of concentrations of the test compounds or with the same volume of phosphate buffer (PBS) in control wells. After incubation, cell suspensions were washed, resuspended in 400 μL fresh medium, and incubated for 5 min at room temperature in the dark with 3.75 μM PI (Sigma-Aldrich). Cell viability was determined via flow cytometry using a Gallios flow cytometer (Beckman Coulter). PI fluorescence was excited with an argon-ion laser at 488 nm and collected through a 620/630 nm band-pass emission. Cellular events were discriminated from debris using forward scatter (FS) and side scatter (SS) signals. Cell aggregates were excluded from analysis based on FS-integral and FS-peak. The gates applied for population discrimination were set manually based on control samples. For each sample, 10,000 events were collected. For further analysis, the cytometric data were exported to Kaluza 2.1 software (Beckman Coulter, Brea, CA, USA). Dead cells were identified and quantified as PI-positive events. The cytotoxic potency of test compounds was quantified using their IC50 values, i.e., the compound concentration at which cell viability is inhibited by 50%, as calculated via curve fitting and determined with the correlation coefficient (R2) using GraphPad Prism 9.0 software. Experiments were carried out in triplicate.

E. coli = test: Checkerboard titration synergy, E. coli; assay type: cell-based, Escherichia coli; conditions: synergistic when FICI ≤0.5
Method: as §1, §2

[3] = 298 K, 0.15 mol/dm^3 NaCl, error in last figure in parentheses

Compound	Stepwise protonation constant (log K), H2L + H ⇄ H3L [1, 3]	Stepwise protonation constant (log K), L + H ⇄ HL [1, 3]	Stepwise protonation constant (log K), LH + H ⇄ H2L [1, 3]	log β (cumulative protonation constant) ([1]; 298 K, 0.15 mol/dm^3 NaCl)	n, average number of positive charges at pH 7.4 [1]	Synergy with Amphotericin B (BY4741/PDR5)	Synergy with Cycloheximide (BY4741/PDR5)	IC50 at 24 h [2] [µg/mL]	Synergy with Ampicillin (E. coli)	Synergy with Ciprofloxacin (E. coli)	Synergy with Doxycycline (E. coli)	Synergy with Gentamicin (E. coli)	Stepwise protonation constant (log K), H3L + H ⇄ H4L [1, 3]	Stepwise protonation constant (log K), H4L + H ⇄ H5L [1, 3]	Stepwise protonation constant (log K), H5L + H ⇄ H6L [1, 3]
c1cc2nc(c1)CNCCN(CCNCc1ccc3c(c1)OCO3)CCNC2 [Compound 5a, 2-(3,6,9-triaza-1(2,6)-pyridinacyclodecaphane-6-yl)-N-(benzo[d][1,3]dioxol-5-ylmethyl)ethan-1-amine]	7.30 (1)	10.48 (1)	8.78 (1)	26.56	2.4	positive results and +	positive results and +	37.8 (≈ 98.7 µM)							
Oc1ccccc1CNCCN1CCNCc2cccc(n2)CNCC1 [Compound 6a]					1.91	positive results and +	positive results and +	98 (≈ 276 µM)	no synergy and -	no synergy and -	no synergy and -	no synergy and -			
Oc1ccc(CNCCN2CCNCc3cccc(n3)CNCC2)cc1 [Compound 7a]				35.48	2.4			951 (≈ 2670 µM)	-	-	-	positive results and +			
c1cc2nc(c1)CNCCN(CCNCc1ccc3c(c1)CCO3)CCNC2 [Compound 8a, 2-(3,6,9-triaza-1(2,6)-pyridinacyclodecaphane-6-yl)-N-((2,3-dihydrobenzofuran-5-yl)methyl)ethan-1-amine]	7.296 (4)	9.943 (3)	8.736 (3)	26.17	2.4			128 (≈ 335 µM)	positive results and +	-	positive results and +	positive results and +			
N^1-(benzo[d][1,3]dioxol-5-ylmethyl)-N^3-(2-((2-((3-((benzo[d][1,3]dioxol-5-ylmethyl)amino)propyl)amino)ethyl)(2-((3-(((2,3-dihydrobenzofuran-6-yl)methyl)amino)propyl)amino)ethyl)amino)ethyl)propane-1,3-diamine [Compound 4a]	9.12 (1)	10.95 (1)	9.63 (1)	51.60	4.5	positive results and +	positive results and +						8.07 (1)	7.48 (1)	6.35 (2)
